Measured values published in patent publication US6534099B1, “Pesticidal compositions containing menthyl salicylate” (Ecosmart Technologies, Inc., priority 1993, dated 2003).

What was measured:
harvester = test: Open glass petri dish exposure (Study E); type: in vivo, harvester ants; settings: mixed with soybean oil
Excerpt: (§1) To address whether the efficacy of PEP will be increased with menthyl salicylate/soybean oil against harvester and black ants.
(§2) glass petri dishes 100 mm were used in this study
(§3) all treated dishes kept open during the time of exposure

German cockroaches = test: Walk-across continuous exposure in treated jars (Study A and B); type: in vivo
Procedure: Experiment 1: To determine the lethal activity of menthyl salicylate against cockroaches. Menthyl salicylate was tested at 250 mg/jar against German cockroaches. Two replicates were used in this study. Three adult German cockroaches were used per replicate. Continuous exposure was performed with “walk-across”. All controls and treated roaches were under continuous observations for 6 hrs.
Experiment 1. To determine whether menthyl salicylate acts as a synergist to eugenol and /or PEP blend. This experiment was also conducted against German cockroaches as described in Study A. Several blends of Eugenol/PEP were tested.

black ants = test: Open glass petri dish exposure (Study E); type: in vivo; settings: mixed with soybean oil
Excerpt: as §1, §2, §3

## CC1CCC(C(C)C)C(OC(=O)c2ccccc2O)C1 (stereo not drawn) [Menthyl salicylate, 2-hydroxybenzoic acid 5-methyl-2-(1-methylethyl)cyclohexyl ester]
harvester
  time to 100% M: ≤ 11 min
German cockroaches; 250 mg/jar
  killing agent (conclusion in words): good killing agent
German cockroaches; 250 mg/jar, 24 hr after continuous exposure
  mortality (M): 100%
German cockroaches; menthyl salicylate 250 mg/jar, 20 min after exposure
  KD (knock-down): 30%
German cockroaches; menthyl salicylate at 4-250 mg
  synergy with eugenol/PEP (in words): synergizes the efficacy of eugenol/PEP
Black ants
  time to 100% M: ≤ 40 min
